Patent publication US10195174B2, “Carbonic anhydrase IX-related markers and use thereof” (SIGNALCHEM LIFESCIENCES CORPORATION, priority 2011, dated 2019)

What was measured:
parental 4T1 cell line = assay: Tumorsphere (TS) formation from doubling dilutions, minimum number of cells required to form a TS; type: cell-based, mouse; details: parental 4T1, hypoxia, 7 days, 200 μM CAI17 (FIG. 6) vs vehicle
Procedure: FIG. 6 is a graph of the number of cells required to initiate TS growth. Parental 4T1 were seeded at doubling dilutions and cultured under TS-forming conditions with 200 μM CAI17 or vehicle added, in normoxia or hypoxia. Mean±SEM of three independent experiments is shown. Statistical significance was confirmed using T-test, *P<0.001, **P<0.0060.
For culture in hypoxia, cells were maintained in 1% O2 and 5% CO2 balanced with N2 at 37 degrees C. in a humidified incubator in a sealed anaerobic workstation. Stable depletion of murine CAIX in 4T1 cells was carried out as described previously (Lou, McDonald et al. 2011).
Cultured 4T1 cells were grown as monolayers with twice weekly sub-cultivation in DMEM (Gibco) containing 5% fetal bovine serum (FBS) (Sigma). Subsequently, parental, shNS and shCAIX 4T1 were cultured as Tumor Spheres (TSs) in Mammocult™ media (StemCell Technologies, Vancouver, B.C., Canada) as per the manufacturer's instructions (Lock, McDonald et al. 2012). Alternatively, for spinner culture TS growth, monolayer cells were trypsinized and single-cell suspensions were incubated at 2×10^5 to 4×10^5 cells/ml in sealed glass spinner culture flasks (Bellco, Vineland, N.J.) under constant rotation, at 150 RPM, 37° C. in DMEM (5% FBS) pre-equilibrated to 5% CO2 as previously described (Oloumi, MacPhail et al. 2000). Cultures were grown for up to 3 weeks. […]

[1] = system: parental 4T1 CD44+CD24−/low cells; assay: E-cadherin immunostaining of FACS-sorted 4T1 populations cultured in hypoxia with or without CAIX inhibitor; type: cell-based, mouse; details: hypoxia 5 days, 50 μM MST-104, vs vehicle
Procedure: FIG. 20 are images of parental 4T1 cells cultured as TSs in normoxia, disaggregated, stained for CD44, CD24 and collected by FACS. Viable CD44+CD24−/low or CD44−CD24+ cells were collected and cultured on glass coverslips in hypoxia for 5 days, with and without 50 μM MST-104, fixed and assessed by immunostaining for expression of E-cadherin.
4T1 TSs were incubated with trypsin, washed once in HF buffer (HBSS containing 2% Fetal Bovine Serum), then stained with anti-CD24-APC and anti-CD44-PECy7 using 0.3 μl of antibody per […] in 100 ul HF, and incubated on ice for 10 min. Following incubation, cells were washed once with HF buffer and resuspended in 300 ul HF buffer containing 4′,6-diamidino-2-phenylindole (DAPI; final concentration, 1 μg/ml). Cells were separated on an Aria™ cell sorter (BD Biosciences, San Jose, Calif., USA). Live cells were gated on the basis of forward and side scatter, and single cells were gated on the basis of forward scatter and pulse width. Gates were determined by analysis of unstained cells, isotype specific controls, and single stains. The CD44+CD24−/low or […] cells were not assessed for purity due to the low numbers of cells obtained. The cell counter of the flow cytometers was used to determine cell numbers. Cells were collected into DMEM media or HF buffer. […]

[2] = system: MDA-MB-231 LM2-4Luc+ primary breast tumor xenografts; assay: Primary tumor growth of orthotopic breast tumor xenografts; type: in vivo, NOD/SCID mice; details: 38 mg/kg MST-104 or 30 mg/kg MST-205, vs vehicle controls, n=8/group
Procedure: FIG. 21 is a graphical representation of in vivo tumor growth. MDA-MB-231 LM2-4luc+ were implanted orthotopically into NOD/SCID mice. When tumors reached an average of […], animals received either vehicle, 38 mg/kg MST-104 or 30 mg/kg MST-205. Subsequent tumor growth was monitored. n=8/group.*P<0.02, **P<0.01.
All animal procedures and studies were carried out in accordance with protocols approved by the Institution Animal Care Committee at the BC Cancer Research Centre and the University of British Columbia (Vancouver, BC, Canada). For primary breast tumor xenografts, 2×10^6 MDA-MB-231 LM2-4Luc+ variant cells were suspended in a 50% Matrigel™/PBS solution and implanted orthotopically in 6-8 week-old female NOD.CB17-prkdcscid/J mice as previously described (Lou, McDonald et al. 2011). Therapy was initiated when tumors reached 200 mm^3. Primary tumor growth rates were calculated from caliper measurements using the modified ellipsoid formula (L×W2)/2. Tumor formation and metastasis progression was monitored and quantified using bioluminescent imaging as previously described (Lou, McDonald et al. 2011).
To evaluate the effect of CAIX inhibition on tumor growth and cancer stem cell expansion in vivo, primary breast tumor xenografts were established using a variant of the MDA-MB-231 cell line, MDA-MB-231 LM2-4Luc+. […] Tumor growth was assessed by caliper measurement and IVIS imaging.

[3] = system: EpCAM+ population of MDA-MB-231 LM2-4Luc+ tumors; assay: EpCAM+ cancer stem cell population of excised primary tumors by FACS; type: in vivo, NOD/SCID mice; details: 27 days, 38 mg/kg MST-104 or 30 mg/kg MST-205, vs vehicle (mean 10% EpCAM+)
Procedure: FIGS. 22A and 22B are representative FACS plots (FIG. 22A) and a bar graph (FIG. 22B), showing the mean changes in EpCAM+ cells±SEM, from 3 mice. MDA-MB-231 LM2-4luc+ were implanted orthotopically into NOD/SCID mice. When tumors reached an average of […], animals received either vehicle or 38 mg/kg MST-104. After 27 days, primary tumors were removed, dissociated and EpCAM+ cell population assessed by FACS analysis. Statistical significance was confirmed using T-test. ***P<0.0331, **P<0.0224.
FIGS. 23A and 23B are representative FACS plots (FIG. 23A) and a bar graph (FIG. 23B) showing MDA-MB-231 LM2-4luc+ cells that were implanted orthotopically into NOD/SCID mice. […] After 27 days, primary tumors were removed, dissociated and EpCAM+ cell population assessed by FACS analysis. […]
(§1) All animal procedures and studies were carried out in accordance with protocols approved by the Institution Animal Care Committee at the BC Cancer Research Centre and the University of British Columbia (Vancouver, BC, Canada). […] Primary tumor growth rates were calculated from caliper measurements using the modified ellipsoid formula (L×W2)/2. Tumor formation and metastasis progression was monitored and quantified using bioluminescent imaging as previously described (Lou, McDonald et al. 2011).
The effect of CAIX inhibition on the primary tumor cancer stem cell population in vivo was quantified. […]

[4] = system: MDA-MB-231 LM2-4 breast cancer cells; assay: CAIX inhibitor with and without paclitaxel: tumor volume, lung metastases (IVIS) and EpCAM+ population (FACS); type: in vivo, NOD-SCID mice; details: tumors excised at humane end point, vs vehicle controls, three tumors per group
Procedure: MDA-MB-231 LM2-4 Luc+ cells were implanted into NOD/SCID mice, tumors were established for 10 days and treatment was then initiated. Paclitaxel was administered by i.v. injection and MST-104 was provided by i.p. injection according to the dosing schedule outlined in the graph (arrows). n=7-8/group. *P<0.02, **P<0.002.
Heat maps indicating metastases are overlaid on grayscale images of the lungs.
The mean total photon flux±SEM for each group is shown.
FIGS. 29A-29E show representative FACS data. NOD-SCID mice mammary fat pad were inoculated with MDA-MB-231 LM2-4 breast cancer cells. Mice were IV dosed with Paclitaxel, or MST-104, or both drugs in combination, or vehicle. At the humane end point, tumours were excised and the viable EpCAM positive population was assessed by FACS.
At the humane end point, tumors were excised and the viable EpCAM positive population was assessed by FACS. […]
as §1, with “2011). […]” for “2011).”

[5] = system: mTORC1 signaling pathway in MDA-MB-231 LM2-4Luc+ tumor cells; assay: Western blot of mTOR pathway components in tumor cells isolated from treated tumor-bearing mice; parameters: species or system NOD/SCID mice; details: in vivo treated tumors
Text: Levels of expression of Actin and GAPDH are shown as loading controls.
To assess the effect of inhibition of CAIX activity on the mTOR pathway by breast cancer cells in vivo, orthotopic human primary breast tumors using MDA-MB-231 LM2-4Luc^+ cells were established in NOD/SCID mice and treated tumor-bearing animals with vehicle or the CAIX-specific inhibitor MST-104. At the experimental end point, primary tumors were removed, dissociated and viable tumor cells lysed and subjected to Western blotting (Lock, McDonald et al. 2012). […] Raptor expression was not regulated following CAIX inhibition in vivo (Raptor/Actin densitometry: Vehicle 0.64 mean±0.05 SEM; U-104 mean 0.69±0.14 SEM).

NS(=O)(=O)c1ccc(CCNC(=S)Nc2ccc(-c3c4ccc(=O)cc-4oc4cc(O)ccc34)c(C(=O)O)c2)cc1 [CAI017]
number of seeding cells required to form a TS (parental 4T1 cell line): significantly increased

NS(=O)(=O)c1ccc(NC(=O)Nc2ccc(F)cc2)cc1 [MST-104]
E-cadherin staining [1]: robust E-cadherin staining | primary tumor growth (tumor volume) [2]: significant inhibition of primary tumor growth | EpCAM+ population of primary tumors [3]: statistically significant reduced EpCAM+ population | viable EpCAM positive population (mean percentage of EpCAM+ CSC) [4]: significant decrease | Raptor expression ([5]; Western blot, vs vehicle): not regulated | expression of the mTORC1 component mTOR ([5]; Western blot, vs vehicle): abolished | mTORC1 signaling pathway ([5]; Western blot, vs vehicle): inhibition of the mTORC1 signaling pathway | phosphorylation and expression of 4EBP1 ([5]; Western blot, vs vehicle): depleted phosphorylation and expression | phosphorylation of Ser939 TSC2 ([5]; Western blot, vs vehicle): reduced phosphorylation | Raptor/Actin densitometry ([5]; mean ± SEM (vehicle 0.64 ± 0.05)): 0.69±0.14

CC(=O)O[C@H]1C(=O)[C@@]2(C)[C@H]([C@H](OC(=O)c3ccccc3)[C@]3(O)C[C@H](OC(=O)[C@H](O)[C@@H](NC(=O)c4ccccc4)c4ccccc4)C(C)=C1C3(C)C)[C@]1(OC(C)=O)CO[C@@H]1C[C@@H]2O [paclitaxel, reference compound]
viable EpCAM positive population (mean percentage of EpCAM+ CSC) [4]: increase in the mean percentage of EpCAM+CSC
